The values below come from US7238703B2, “Azabicyclic, azatricyclic and azaspirocyclic derivatives of aminocyclohexane NMDA, 5HT3, and neuronal nicotinic receptor antagonists” (priority 2002, dated 2007).

Where a name gives a salt, the structure may show the parent alone. Read-outs that look alike come from different tables or passages of the source. Where only a bound is given, the exact number is not on record here.

Series [1] concerns the target NMDA receptor ([3H]-(+)-MK-801 site). The experiment in a line: [3H]-(+)-MK-801 receptor binding, rat cortex membranes. The following applies: for Ki: glycine 10 μM, glutamate 10 μM, mean, n=3. The procedure:
Male Sprague-Dawley rats (200-250 g) were decapitated and their brains were removed rapidly. The cortex was dissected and homogenized in 20 volumes of ice-cold 0.32 M sucrose using a glass-Teflon homogenizer. The homogenate was centrifuged at 1000× g for 10 min. The pellet was discarded and the supernatant centrifuged at 20,000× g for 20 min. The resulting pellet was re-suspended in 20 volumes of distilled water and centrifuged for 20 min at 8000× g. Then the supernatant and the buffy coat were centrifuged at 48,000× g for 20 min in the presence of 50 mM Tris-HCl, pH 8.0. The pellet was then re-suspended and centrifuged two to three more times at 48,000× g for 20 min in the presence of 50 mM Tris-HCl, pH 8.0. All centrifugation steps were carried out at 4° C. After resuspension in 5 volumes of 50 mM Tris-HCl, pH 8.0 the membrane suspension was frozen rapidly at −80° C.
On the day of assay the membranes were thawed and washed four times by resuspension in 50 mM Tris-HCl, pH 8.0 and centrifugation at 48,000× g for 20 min. and finally re-suspended in 50 mM Tris-HCl, pH 7.4. The amount of protein in the final membrane preparation (250-500 μg/ml) was determined according to the method of Lowry et al. (1951). Incubations were started by adding [^3H]-(+)-MK-801 (23.9 Ci/mmol, 5 nM, Dupont NEN) to vials with glycine (10 μM), glutamate (10 μM), and 125-250 μg protein (total volume 0.5 ml) and various concentrations of the agents tested (10 concentrations in duplicates). The incubations were continued at room temperature for 120 min (equilibrium was achieved under the conditions used). Non-specific binding was defined by the addition of unlabeled (+)-MK-801 (10 μM). Incubations were terminated using a Millipore filter system. The samples were rinsed twice with 4 ml of ice cold assay buffer over glass fibre filters (Schleicher & Schuell) under a constant vacuum. Following separation and rinse the filters were placed into scintillation liquid (5 ml; Ultima Gold) and radioactivity retained on the filters was determined with a conventional liquid scintillation counter (Hewlett Packard, Liquid Scintillation Analyser). […] Most antagonists were tested in 3 to 7 separate experiments.
IC50s in patch clamp and binding studies were calculated according to the four parameter logistic equation using the Grafit computer program (Erithacus Software, England). Ki value for binding studies were then determined according to Cheng and Prusoff. Binding values presented are means±SEM of 3-5 determinations (each performed in duplicate).

The next series concerns the target T1, NR1a/2A receptors (Homo sapiens, UniProt Q05586+Q12879).
T1 construct: expressed in transfected cells; host or cells: Xenopus laevis oocytes injected with subunit RNA
The series can be described thus: NMDA receptor subtype expression in Xenopus oocytes, two-electrode voltage clamp. The format is cell-based. As to the method:
Mature female Xenopus laevis were anaesthetized in 0.2% Tricaine on ice for 15 min prior to surgery. Oocytes were removed and incubated in 2 mg/ml collagenase (type II) in Ca^2+-free oocyte Ringer solution (82.5 mM NaCl, 2 mM KCl, 2 mM MgCl2, 5 mM HEPES, pH 7.5) for 30 min. at room temperature and washed thoroughly with OR-2 (100 mM NaCl, 2 mM KCl, 1 mM MgCl2, 2 mM CaCl2, 5 mM HEPES, pH 7.5). The remaining follicle cell layer was removed manually with fine forceps and the oocytes were kept in OR-2. The RNA was dissolved in DEPC-treated, sterile distilled water. RNA for the NMDA NR1a subunit was mixed 1:1 with RNA for the NR2A subunit. Likewise neuronal nicotinic α4 RNA was mixed 1:1 with RNA for the β2 subunit. Fifty to 100 nanoliters of each RNA mixture were injected in the oocyte's cytoplasm using a Nanoliter Injector (World Precision Instruments). The oocytes were incubated at 19° C. in OR-2 for the following 3 to 6 days.
The electrophysiological responses were obtained using the standard two-electrode voltage-clamp method (GeneClamp 500 amplifier), 2-6 days after injection. […] Recordings were made in a custom made chamber with 2 to 3 second exchange times. The bath solution was prepared Ca^2+-free, to avoid Ca^2+-induced Cl^− currents (100 mM NaCl, 2 mM KCl, 5 mM HEPES, 2 mM BaCl2, pH 7.35). NMDA receptors were activated by the manual co-application of 1 mM Glutamate and 10 μM Glycine for 30-40 secs every 2 to 3 mins to oocytes clamped at −70 mV. Neuronal nicotinic receptors were activated by application of 100 μM acetylcholine for 20-30 secs every 2 to 3 mins to oocytes clamped at −70 mV. After obtaining stable control responses, full concentration-response curves with antagonists were obtained by preincubating 6-7 different concentrations at log 3 intervals.
Only results from stable cells were accepted for inclusion in the final analysis i.e. showing at least 50% recovery of responses to NMDA following removal of the antagonist tested. Despite this, recovery from drug actions wasn't always 100% because of minor rundown or runup in some cells. When present, this was always compensated by basing the % antagonism at each concentration on both control and recovery and assuming a linear time course for this rundown. All antagonists were assessed at steady-state blockade with 6 to 7 concentrations on at least 4 cells. Equilibrium blockade was achieved within 1 to 3 agonist applications, depending on antagonist concentration.
Kinetic experiments were performed by applying various concentrations of unsaturated amino-alkyl-cyclohexanes (normally 5 in a log 3 dosing regime) for 10-20 seconds in the continuous presence of glutamate (100 μM and glycine 10 μM) for 90-180 seconds in Xenopus oocytes expressing NR1a/2A receptors. The perfusion system used for these experiments was a modified oocyte carousel system which allows rapid wash in and wash out of agonist and antagonist with change times less than one second. Exponential fits were made using the program TIDA for windows and most responses were well fitted by a single exponential. This same system was used to access the voltage-dependency of blockade, but the bath solution contained flufenamic acid (100 μM) to block endogenous voltage-activated and Ca^2+ activated Cl^− currents. Also, Ba^2+ (2 mM) was replaced by low concentrations of Ca^2+ (0.2 mM). Following equilibrium blockade by higher concentrations of antagonist (normally around 10 times the IC50), five ramps were driven from −70 mV to +30 mV over two seconds. Similar ramps were driven in bath solutions and for glutamate without antagonist, both before antagonist application and following recovery of responses. The leak currents in the absence of glutamate were substrated from the glutamate and glutamate plus antagonist curves. Voltage-dependency was then determined by comparing the glutamate and glutamate plus antagonist curves.
(In general: Two-electrode voltage clamp is typically applied to oocytes expressing channels or transporters.)

The test system of a further series is tonic convulsions (MES). The experiment in a line: Maximal electroshock (MES) anticonvulsive test. It is filed as in vivo, mice. The following applies: Mus musculus, ip, read-out: MES ED50. As to the method: (§1) NMR female mice (18-28 g) housed 5 per cage were used for the maximal electroshock (MES) and motor impairment tests. All animals were kept with water and food ad libitum under a 12 hour light-dark cycle (light on at 6 a.m.) and at a controlled temperature (20±0.5 °C.). All experiments were performed between 10 a.m. and 5 p.m. Tested agents were injected 30 min. i.p. before the induction of convulsions if not stated otherwise (see below). All compounds were dissolved in 0.9% saline.
(§2) The MES test was performed together with tests for myorelaxant action (traction reflex) and motor coordination (rotarod). For the traction reflex test mice were placed with their forepaws on a horizontal rod and were required to place all 4 paws on the wire within 10 seconds. To test ataxia (motor coordination) mice were placed on an accelerating rotarod and were required to remain on the rod for 1 minute. […] These tests were followed by MES (100 Hz, 0.5 second shock duration, 50 mA shock intensity, 0.9 ms impulse duration, Ugo Basile) applied through corneal electrodes. The presence of tonic convulsions was scored (tonic extension of hind paws with minimum angle to the body of 90[…]). The aim was to obtain ED50s for all parameters scored (anticonvulsive activity and motor side effects) with use of the Litchfield Wilcoxon test for quantal dose responses. Division of the ED50 for side effects (ataxia or myorelaxation) by the ED50 for antagonism of electroshock convulsions was used as a therapeutic index (TI).
(§3) ED50s are presented with 95% confidence limits (Cl). Pearson product moment correlation analysis (Sigma Stat, Jandel Scientific) was used to compare in vitro potencies and in vivo anticonvulsant activity.

Series [2] in a line: Myorelaxant action (traction reflex). The format is in vivo, mice. Particulars: mouse, in vivo, ip; NMR female mice, i.p., traction reflex; read-out: Myorelaxation ED50. The procedure:
as §1, §2
(§4) Pearson product moment correlation analysis (Sigma Stat, Jandel Scientific) was used to compare in vitro potencies and in vivo anticonvulsant activity.

A short description of series [3]: Ataxia / motor coordination (rotarod). It is filed as in vivo, mice. The following applies: mouse, in vivo, ip; NMR female mice, accelerating rotarod. The procedure:
as §1, §2, §3

The test system of another series is traction reflex. The series can be described thus: Myorelaxant action (traction reflex). It is filed as in vivo, mice. The following applies: for Myorelaxation ED50: NMR female mice, i.p., traction reflex, in mg/kg; for TI Myorelaxation: ED50 myorelaxation divided by ED50 MES. The procedure:
as §1, §2, §4

Series [4] relates to motor coordination (rotarod). The series can be described thus: Ataxia / motor coordination (rotarod). It is filed as in vivo, mice. The following applies: ED50 ataxia divided by ED50 MES. As to the method: as §1, §2, §3
(In the rotarod test animals must keep their balance on a rotating rod.)

Setting [5] is: Xenopus oocytes, N=6, read-out: NMDA IC50.

T1 sequence (Q12879 23-1464, other chains not shown): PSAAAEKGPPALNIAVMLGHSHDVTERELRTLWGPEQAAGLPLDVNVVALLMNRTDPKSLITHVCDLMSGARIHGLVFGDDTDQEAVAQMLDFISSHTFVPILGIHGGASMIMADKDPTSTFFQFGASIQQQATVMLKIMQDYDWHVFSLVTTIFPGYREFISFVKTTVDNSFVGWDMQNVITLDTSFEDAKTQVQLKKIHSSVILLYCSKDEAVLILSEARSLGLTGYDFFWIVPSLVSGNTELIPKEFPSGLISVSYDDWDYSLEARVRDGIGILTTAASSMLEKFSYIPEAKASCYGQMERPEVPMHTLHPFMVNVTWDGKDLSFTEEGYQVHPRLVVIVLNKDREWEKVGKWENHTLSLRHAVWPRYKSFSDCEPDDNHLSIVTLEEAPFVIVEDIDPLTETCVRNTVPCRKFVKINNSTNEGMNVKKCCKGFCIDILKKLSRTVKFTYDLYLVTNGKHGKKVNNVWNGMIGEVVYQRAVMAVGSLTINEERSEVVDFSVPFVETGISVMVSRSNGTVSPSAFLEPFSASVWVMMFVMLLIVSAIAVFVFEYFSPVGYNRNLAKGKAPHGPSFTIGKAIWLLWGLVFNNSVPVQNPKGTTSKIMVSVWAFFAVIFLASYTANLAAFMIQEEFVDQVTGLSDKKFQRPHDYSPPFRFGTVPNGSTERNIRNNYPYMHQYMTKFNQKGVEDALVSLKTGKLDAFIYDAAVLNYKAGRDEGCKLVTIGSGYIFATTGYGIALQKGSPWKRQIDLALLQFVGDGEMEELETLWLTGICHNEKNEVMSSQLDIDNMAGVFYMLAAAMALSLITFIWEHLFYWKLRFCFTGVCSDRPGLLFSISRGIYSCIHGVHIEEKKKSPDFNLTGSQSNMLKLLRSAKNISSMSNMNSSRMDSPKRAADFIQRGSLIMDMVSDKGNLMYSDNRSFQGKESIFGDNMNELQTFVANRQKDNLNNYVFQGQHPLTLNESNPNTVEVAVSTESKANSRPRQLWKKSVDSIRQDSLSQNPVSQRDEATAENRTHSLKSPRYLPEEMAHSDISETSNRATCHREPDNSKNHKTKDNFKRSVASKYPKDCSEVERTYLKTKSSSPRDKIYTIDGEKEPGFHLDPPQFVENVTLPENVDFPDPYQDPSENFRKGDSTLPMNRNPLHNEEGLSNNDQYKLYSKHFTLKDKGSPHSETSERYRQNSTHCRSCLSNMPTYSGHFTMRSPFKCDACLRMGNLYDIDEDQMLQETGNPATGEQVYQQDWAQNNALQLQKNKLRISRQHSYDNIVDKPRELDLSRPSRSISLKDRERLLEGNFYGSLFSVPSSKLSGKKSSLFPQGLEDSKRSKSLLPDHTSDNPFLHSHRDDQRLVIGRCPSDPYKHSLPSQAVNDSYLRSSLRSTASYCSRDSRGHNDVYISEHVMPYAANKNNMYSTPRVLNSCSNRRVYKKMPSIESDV

Turning to `CC1CC2(C)CNC(C)(C1)C2` (stereo not drawn) [MRZ 2011, 1,exo-3,5-Trimethyl-6-azabicyclo[3.2.1]octane hydrochloride], affinity in series [1] was put at a Ki of 15.8 µM.
Consider `CCC1CC2(C)CNC(C)(C1)C2` (stereo not drawn) [MRZ 2007, exo-3-Ethyl-1,5-dimethyl-6-azabicyclo[3.2.1]octane hydrochloride], for which the affinity in series [1] corresponds to a Ki of 5.46 µM. Further, the IC50 (as a rule, the concentration that inhibits the measured activity by half) on NR1a/2A receptors (setting [5]) was found to be 6.77 µM. Moreover, in the series with tonic convulsions (MES), the ED50 (in general, the midpoint of the dose-response relation) is more than 50 mg/kg. Also, the ED50 at 30 min in series [2] is more than 50 mg/kg; in series [3], 50 mg/kg.
As for “(+)-5-methyl-10,11-dihydro-5H-dibenzocyclohepten-5,10-imine maleate [[^3H]-(+)-MK-801, reference compound]”, the Kd (commonly the equilibrium constant for the complex coming apart) in series [1] (read-out: Kd of radioligand by Scatchard analysis) came out at 0.0046 µM.
For the compound `CC1CC2(C)CC(C)(C1)C(c1ccccc1)N2` (stereo not drawn) [MRZ 2028, 1,exo-3,5-Trimethyl-exo,endo-7-phenyl-6-azabicyclo[3.2.1]octane hydrochloride], the Ki (in general, the dissociation constant of the complex between target and ligand, obtained from inhibition or displacement) in series [1] came to 3.21 µM. Further, the IC50 at NR1a/2A receptors (setting [5]) was 10.3 µM.
Compound `CN1CC2(C)CC(C)(C)CC1(C)C2.Cl` (centres unmarked) [MRZ 2/1003, 1,3,3,5,6-Pentamethyl-6-azabicyclo [3.2.1]octane hydrochloride] registered a Ki in series [1] of 7.4 µM. The ED50 in the series with tonic convulsions (MES) worked out at 16.2 mg/kg. Further, the “Myorelaxation ED50” value with traction reflex is given as 16.77. This compound also registered an ED50 at 30 min in series [3] of 20.6 mg/kg.
`CC1(C)CC(C)(C)CC2(CCCN2)C1.Cl` [MRZ 2/1004, 7,7,9,9-Tetramethyl-1-azaspiro[4.5]decane hydrochloride] returned a Ki in series [1] of 10.5 µM. In addition, in the series with tonic convulsions (MES) (NMR female mice, i.p. 30 min before convulsions), the ED50 came out at 24.1 mg/kg. The values for the ED50 at 30 min in series [2] and in series [3] were 27.5 mg/kg and 24 mg/kg, respectively. Besides, in the series on traction reflex, the “TI Myorelaxation” value came to 1.14. Besides, the “TI Ataxia” value in series [4] is on record as 1.00.
Consider `CCC12CC(C)(C)CC(C)(CN1)C2` (centres unmarked) [MRZ 2022, 5-Ethyl-1,3,3-trimethyl-6-azabicyclo[3.2.1]octane hydrochloride], for which the Ki in series [1] is 14.4 µM. This compound also registered an IC50 against NR1a/2A receptors of 13.9 µM.
In series [1], `CCC12CC(C)CC(C)(CN1)C2` (stereo not drawn) [MRZ 2023, 5-Ethyl-1,exo-3-dimethyl-6-azabicyclo[3.2.1]octane hydrochloride] registered a Ki of 23.3 µM. At NR1a/2A receptors (setting [5]), the IC50 turned out to be 16.1 µM. Further, the ED50 in the series on tonic convulsions (MES) is more than 30 mg/kg. Moreover, the ED50 at 30 min in series [2] and in series [3] was more than 30 mg/kg each time.
In turn, `CC1CC2(C)CC(C)(C1)C(C)N2` (stereo not drawn) [MRZ 2029, 1,exo-3,5,exo,endo-7-Tetramethyl-6-azabicyclo[3.2.1]octane hydrochloride] returned a Ki in series [1] of 13.2 µM. In addition, the IC50 at NR1a/2A receptors (setting [5]) amounted to 36.1 µM. For the same compound, the ED50 in the series on tonic convulsions (MES) was more than 50 mg/kg. The ED50 at 30 min in series [2] and in series [3] was more than 50 mg/kg each time.
In series [1], `CC1(C)CC2(C)CNC(C)(C1)C2.Cl` (centres unmarked) [MRZ 2/1010, 1,3,3,5-Tetramethyl-6-azabicyclo [3.2.1]octane hydrochloride] registered a Ki of 2.59 µM. At NR1a/2A receptors, inhibition was half-maximal at 0.76 µM (IC50). The Hill at NR1a/2A receptors (Xenopus oocytes expressing NR1a/2A, glutamate 100 μM, glycine 10 μM, -70 mV) is 0.63. Also, the 50% effective dose (ED50) in the series on tonic convulsions (MES) worked out at 5.91 mg/kg. Also, the “Myorelaxation ED50” value in the series on traction reflex was found to be 10.62. For the same compound, the ED50 at 30 min in series [3] came out at 24.9 mg/kg.
Regarding `CC1(C)CC(C)(C)CC2(CCCCN2)C1.Cl` [MRZ 2/1013, 8,8,10,10-Tetramethyl-1-azaspiro[5.5]undecane hydrochloride], the inhibition constant (Ki) in series [1] stood at 3.64 µM. This compound displayed an IC50 on NR1a/2A receptors of 4.72 µM. Moreover, in the series on tonic convulsions (MES), the ED50 came to 9.39 mg/kg. For the same compound, the ED50 at 30 min in series [2] was 34.5 mg/kg; in series [3], 37.2 mg/kg. For the same compound, in the series with traction reflex, the “TI Myorelaxation” value was 3.67. For the same compound, the “TI Ataxia” value in series [4] is 3.97.
